Source: ChEMBL document CHEMBL1201862, “PubChem BioAssay data set” (2004)
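Interpolation was linear, between the two tested concentrations surrounding the appropriate level; five concentrations were tested over 48 hours in 96-well plates. GI50 = concentration required for 50% inhibition of growth.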 Calls of active or inactive are those of the source. Cut-off read from the data, not from the text of the source: active = GI50 up to about 1.1 µM and inactive = higher.

Assays:
Assay in all cases: NCI-60 cell line screen, 48 h
[1] = tested on: OVCAR-3
[2] = tested on: PC-3
[3] = tested on: NCI-H460
[4] = tested on: HOP-62
[5] = tested on: HOP-92
[6] = tested on: K562
[7] = tested on: DU-145
[8] = tested on: UACC-62
[9] = tested on: TK-10
[10] = tested on: 786-0
[11] = tested on: SNB-19
[12] = tested on: HCT-15
[13] = tested on: MCF7
[14] = tested on: A549
[15] = tested on: OVCAR-8
[16] = tested on: Hs-578T
[17] = tested on: OVCAR-5
[18] = tested on: CAKI-1
[19] = tested on: NCI-H23
[20] = tested on: T47D
[21] = tested on: SF-268
[22] = tested on: U-251
[23] = tested on: SK-MEL-28
[24] = tested on: SN12C
[25] = tested on: SK-MEL-2
[26] = tested on: LOX IMVI
[27] = tested on: EKVX
[28] = tested on: MDA-MB-435
[29] = tested on: OVCAR-4
[30] = tested on: HL-60
[31] = tested on: HCT-116
[32] = tested on: MDA-N
[33] = tested on: Malme-3M
[34] = tested on: NCI-H522
[35] = tested on: M14
[36] = tested on: ACHN
[37] = tested on: SR
[38] = tested on: UACC-257
[39] = tested on: HT-29
[40] = tested on: CCRF-CEM
[41] = tested on: SF-539
[42] = tested on: NCI-H226
[43] = tested on: MOLT-4
[44] = tested on: RPMI-8226
[45] = tested on: HCC 2998
[46] = tested on: SF-295
[47] = tested on: SW-620
[48] = tested on: SNB-75
[49] = tested on: SK-MEL-5
[50] = tested on: KM12
[51] = tested on: A498
[52] = tested on: IGROV-1
[53] = tested on: RXF 393
[54] = tested on: UO-31
[55] = tested on: SK-OV-3
[56] = tested on: NCI/ADR-RES
[57] = tested on: COLO 205
[58] = tested on: MDA-MB-231

N=C(N)c1ccc(OCCCCCOc2ccc(C(=N)N)cc2)cc1
GI50 [1]: 15.5 µM (inactive) | GI50 [2]: 12.1 µM (inactive) | GI50 [3]: 3.08 µM (inactive) | GI50 [4]: 16.1 µM (inactive) | GI50 [5]: 32.6 µM (inactive) | GI50 [6]: 1.92 µM (inactive) | GI50 [7]: 13.6 µM (inactive) | GI50 [8]: 11.5 µM (inactive) | GI50 [9]: 13.6 µM (inactive) | GI50 [10]: 13.4 µM (inactive) | GI50 [11]: 15.7 µM (inactive) | GI50 [12]: 16.7 µM | GI50 [13]: 5.31 µM (inactive) | GI50 [14]: 6.17 µM (inactive) | GI50 [15]: 7.85 µM (inactive) | GI50 [16]: 11.5 µM (inactive) | GI50 [17]: 22.8 µM (inactive) | GI50 [18]: > 100 µM (inactive) | GI50 [19]: 6.71 µM (inactive) | GI50 [20]: 7.73 µM (inactive) | GI50 [21]: 12.5 µM (inactive) | GI50 [22]: 9.84 µM (inactive) | GI50 [23]: 10.2 µM (inactive) | GI50 [24]: 7.06 µM (inactive) | GI50 [25]: 17.3 µM (inactive) | GI50 [26]: 12.7 µM (inactive) | GI50 [27]: 18.1 µM (inactive) | GI50 [28]: 10.4 µM (inactive) | GI50 [29]: 11.2 µM (inactive) | GI50 [30]: 15.3 µM (inactive) | GI50 [31]: 14.4 µM (inactive) | GI50 [32]: 11.2 µM (inactive) | GI50 [33]: 13.8 µM (inactive) | GI50 [34]: 6.44 µM (inactive) | GI50 [35]: 15.2 µM (inactive) | GI50 [36]: 14.4 µM (inactive)

Cc1ncc([N+](=O)[O-])n1CCNCCCn1ccnc1[N+](=O)[O-]
GI50 [1]: > 100 µM (inactive) | GI50 [37]: > 100 µM (inactive) | GI50 [2]: > 100 µM (inactive) | GI50 [3]: > 100 µM (inactive) | GI50 [4]: > 100 µM (inactive) | GI50 [38]: > 100 µM (inactive) | GI50 [6]: > 100 µM (inactive) | GI50 [39]: > 100 µM (inactive) | GI50 [9]: 70.3 µM (inactive) | GI50 [10]: > 100 µM (inactive) | GI50 [12]: > 100 µM | GI50 [13]: > 100 µM (inactive) | GI50 [14]: > 100 µM (inactive) | GI50 [40]: > 100 µM (inactive) | GI50 [15]: > 100 µM (inactive) | GI50 [41]: > 100 µM (inactive) | GI50 [16]: > 100 µM (inactive) | GI50 [17]: 75.3 µM (inactive) | GI50 [19]: > 100 µM (inactive) | GI50 [42]: > 100 µM (inactive) | GI50 [43]: > 100 µM (inactive) | GI50 [21]: > 100 µM (inactive) | GI50 [44]: > 100 µM (inactive) | GI50 [45]: > 100 µM (inactive) | GI50 [22]: > 100 µM (inactive) | GI50 [46]: > 100 µM (inactive) | GI50 [23]: > 100 µM (inactive) | GI50 [24]: > 100 µM (inactive) | GI50 [25]: > 100 µM (inactive) | GI50 [47]: > 100 µM (inactive) | GI50 [27]: > 10 µM (inactive) | GI50 [48]: > 100 µM (inactive) | GI50 [30]: > 100 µM (inactive) | GI50 [31]: > 100 µM (inactive) | GI50 [33]: > 100 µM (inactive) | GI50 [34]: > 100 µM (inactive) | GI50 [49]: > 100 µM (inactive) | GI50 [50]: > 100 µM (inactive)

O=C1C(C(O)(C(F)(F)F)C(F)(F)F)CCC1C(O)(C(F)(F)F)C(F)(F)F (stereo unspecified)
GI50 [1]: 0.918 µM (active) | GI50 [37]: 0.215 µM (active) | GI50 [51]: 964 nM (active) | GI50 [2]: 0.176 µM (active) | GI50 [3]: 8.83 µM (inactive) | GI50 [4]: 0.569 µM (active) | GI50 [5]: < 0.01 µM (active) | GI50 [38]: 7.67 µM (inactive) | GI50 [6]: 3.64 µM (inactive) | GI50 [7]: 7.96 µM (inactive) | GI50 [39]: 0.301 µM (active) | GI50 [8]: 1.78 µM (inactive) | GI50 [9]: 42.1 µM (inactive) | GI50 [10]: 3.87 µM (inactive) | GI50 [52]: 5.48 µM (inactive) | GI50 [11]: 17.9 µM (inactive) | GI50 [12]: 28.3 µM | GI50 [13]: 0.174 µM (active) | GI50 [53]: 346 nM (active) | GI50 [14]: 1.91 µM (inactive) | GI50 [40]: 1.15 µM (inactive) | GI50 [15]: 8.75 µM (inactive) | GI50 [54]: 1.09 µM (active) | GI50 [41]: 6.82 µM (inactive) | GI50 [16]: 1.37 µM (inactive) | GI50 [17]: 9.98 µM (inactive) | GI50 [18]: 0.341 µM (active) | GI50 [19]: 0.769 µM (active) | GI50 [55]: 23 µM (inactive) | GI50 [42]: 0.33 µM (active) | GI50 [43]: 0.341 µM (active) | GI50 [21]: 5.7 µM (inactive) | GI50 [44]: 0.142 µM (active) | GI50 [45]: 0.323 µM (active) | GI50 [22]: 13.5 µM (inactive) | GI50 [46]: 0.849 µM (active) | GI50 [23]: 3.16 µM (inactive) | GI50 [24]: 0.684 µM (active) | GI50 [25]: 0.522 µM (active) | GI50 [47]: 5.89 µM (inactive) | GI50 [56]: 2.33 µM (inactive) | GI50 [26]: 0.594 µM (active) | GI50 [27]: 8.13 µM (inactive) | GI50 [28]: 13.2 µM (inactive) | GI50 [48]: 0.234 µM (active) | GI50 [29]: 1.18 µM (inactive) | GI50 [30]: 1.16 µM (inactive) | GI50 [31]: 0.556 µM (active) | GI50 [32]: > 36.7 µM (inactive) | GI50 [33]: 1.06 µM (active) | GI50 [34]: 1.29 µM (inactive) | GI50 [49]: 1.72 µM (inactive) | GI50 [35]: 8.71 µM (inactive) | GI50 [36]: 1.8 µM (inactive) | GI50 [57]: 48.1 nM (active) | GI50 [50]: 0.946 µM (active) | GI50 [58]: 746 nM (active)
